Assays:
Assay in all cases: cells
CP50-MEL-B = assay type: functional, cell-based, Homo sapiens; conditions: Homo sapiens, CP50-MEL-B
Description: SANGER: Inhibition of human CP50-MEL-B cell growth in a cell viability assay.

CTB-1 = assay type: functional, cell-based; conditions: Homo sapiens
Description: SANGER: Inhibition of human CTB-1 cell growth in a cell viability assay.

D-263MG = assay type: functional, cell-based, Homo sapiens; conditions: Homo sapiens, D-263MG
Description: SANGER: Inhibition of human D-263MG cell growth in a cell viability assay.

GAK = assay type: functional, cell-based, Homo sapiens; conditions: Homo sapiens, GAK
Description: SANGER: Inhibition of human GAK cell growth in a cell viability assay.

GI-1 = assay type: functional, cell-based, Homo sapiens; conditions: Homo sapiens, GI-1
Description: SANGER: Inhibition of human GI-1 cell growth in a cell viability assay.

HCC1187 = assay type: functional, cell-based, Homo sapiens; conditions: Homo sapiens, HCC1187
Description: SANGER: Inhibition of human HCC1187 cell growth in a cell viability assay.

HCC1395 = assay type: functional, cell-based, Homo sapiens; conditions: Homo sapiens, HCC1395
Description: SANGER: Inhibition of human HCC1395 cell growth in a cell viability assay.

HCE-4 = assay type: functional, cell-based, Homo sapiens; conditions: Homo sapiens, HCE-4
Description: SANGER: Inhibition of human HCE-4 cell growth in a cell viability assay.

HL-60 = assay type: functional, cell-based; conditions: Homo sapiens
Description: SANGER: Inhibition of human HL-60 cell growth in a cell viability assay.

HOS = assay type: functional, cell-based, Homo sapiens; conditions: Homo sapiens, HOS
Description: SANGER: Inhibition of human HOS cell growth in a cell viability assay.

HT-144 = assay type: functional, cell-based, Homo sapiens; conditions: Homo sapiens, HT-144
Description: SANGER: Inhibition of human HT-144 cell growth in a cell viability assay.

HuTu80 = assay type: functional, cell-based, Homo sapiens, HUTU-80; conditions: Homo sapiens, HuTu80
Description: SANGER: Inhibition of human HUTU-80 cell growth in a cell viability assay.

HuCCT-1 = assay type: functional, cell-based, Homo sapiens, HuCCT1; conditions: Homo sapiens, HuCCT-1
Description: SANGER: Inhibition of human HuCCT1 cell growth in a cell viability assay.

IA-LM = assay type: functional, cell-based, Homo sapiens; conditions: Homo sapiens, IA-LM
Description: SANGER: Inhibition of human IA-LM cell growth in a cell viability assay.

IGROV-1 = assay type: functional, cell-based, Homo sapiens; conditions: Homo sapiens, IGROV-1
Description: SANGER: Inhibition of human IGROV-1 cell growth in a cell viability assay.

JEG-3 = assay type: functional, cell-based, Homo sapiens; conditions: Homo sapiens, JEG-3
Description: SANGER: Inhibition of human JEG-3 cell growth in a cell viability assay.

K5 = assay type: functional, cell-based, Homo sapiens; conditions: Homo sapiens, K5
Description: SANGER: Inhibition of human K5 cell growth in a cell viability assay.

KG-1 = assay type: functional, cell-based; conditions: Homo sapiens
Description: SANGER: Inhibition of human KG-1 cell growth in a cell viability assay.

KU812 cell line = assay type: functional, cell-based; conditions: Homo sapiens
Description: SANGER: Inhibition of human KU812 cell growth in a cell viability assay.

MDA-MB-157 = assay type: functional, cell-based, Homo sapiens; conditions: Homo sapiens, MDA-MB-157
Description: SANGER: Inhibition of human MDA-MB-157 cell growth in a cell viability assay.

MHH-PREB-1 = assay type: functional, cell-based; conditions: Homo sapiens
Description: SANGER: Inhibition of human MHH-PREB-1 cell growth in a cell viability assay.

MPP-89 = assay type: functional, cell-based, Homo sapiens; conditions: Homo sapiens, MPP-89
Description: SANGER: Inhibition of human MPP-89 cell growth in a cell viability assay.

NCI-H1651 = assay type: functional, cell-based, Homo sapiens; conditions: Homo sapiens, NCI-H1651
Description: SANGER: Inhibition of human NCI-H1651 cell growth in a cell viability assay.

NCI-H1755 = assay type: functional, cell-based, Homo sapiens; conditions: Homo sapiens, NCI-H1755
Description: SANGER: Inhibition of human NCI-H1755 cell growth in a cell viability assay.

NCI-H2052 = assay type: functional, cell-based, Homo sapiens; conditions: Homo sapiens, NCI-H2052
Description: SANGER: Inhibition of human NCI-H2052 cell growth in a cell viability assay.

NCI-H23 = assay type: functional, cell-based, Homo sapiens; conditions: Homo sapiens, NCI-H23
Description: SANGER: Inhibition of human NCI-H23 cell growth in a cell viability assay.

NCI-H2347 = assay type: functional, cell-based, Homo sapiens; conditions: Homo sapiens, NCI-H2347
Description: SANGER: Inhibition of human NCI-H2347 cell growth in a cell viability assay.

NCI-H596 = assay type: functional, cell-based, Homo sapiens; conditions: Homo sapiens, NCI-H596
Description: SANGER: Inhibition of human NCI-H596 cell growth in a cell viability assay.

NCI-H661 = assay type: functional, cell-based, Homo sapiens; conditions: Homo sapiens, NCI-H661
Description: SANGER: Inhibition of human NCI-H661 cell growth in a cell viability assay.

NCI-H720 = assay type: functional, cell-based; conditions: Homo sapiens
Description: SANGER: Inhibition of human NCI-H720 cell growth in a cell viability assay.

NCI-H747 = assay type: functional, cell-based; conditions: Homo sapiens
Description: SANGER: Inhibition of human NCI-H747 cell growth in a cell viability assay.

OAW-42 = assay type: functional, cell-based, Homo sapiens; conditions: Homo sapiens, OAW-42
Description: SANGER: Inhibition of human OAW-42 cell growth in a cell viability assay.

ONS-76 = assay type: functional, cell-based, Homo sapiens; conditions: Homo sapiens, ONS-76
Description: SANGER: Inhibition of human ONS-76 cell growth in a cell viability assay.

P12-Ichikawa = assay type: functional, cell-based; conditions: Homo sapiens
RPMI-8866 = assay type: functional, cell-based; conditions: Homo sapiens
Description: SANGER: Inhibition of human RPMI-8866 cell growth in a cell viability assay.

SBC-5 = assay type: functional, cell-based, Homo sapiens; conditions: Homo sapiens, SBC-5
Description: SANGER: Inhibition of human SBC-5 cell growth in a cell viability assay.

SCC-25 = assay type: functional, cell-based, Homo sapiens; conditions: Homo sapiens, SCC-25
Description: SANGER: Inhibition of human SCC-25 cell growth in a cell viability assay.

SK-MEL-24 = assay type: functional, cell-based; conditions: Homo sapiens
Description: SANGER: Inhibition of human SK-MEL-24 cell growth in a cell viability assay.

SKG-IIIa = assay type: functional, cell-based, Homo sapiens; conditions: Homo sapiens, SKG-IIIa
Description: SANGER: Inhibition of human SKG-IIIa cell growth in a cell viability assay.

SNU-387 = assay type: functional, cell-based, Homo sapiens; conditions: Homo sapiens, SNU-387
Description: SANGER: Inhibition of human SNU-387 cell growth in a cell viability assay.

T-24 = assay type: functional, cell-based, Homo sapiens; conditions: Homo sapiens, T-24
Description: SANGER: Inhibition of human T-24 cell growth in a cell viability assay.

5637 = assay type: functional, cell-based, Homo sapiens; conditions: Homo sapiens
Description: SANGER: Inhibition of human 5637 cell growth in a cell viability assay.

8-MG-BA = assay type: functional, cell-based, Homo sapiens; conditions: Homo sapiens, 8-MG-BA
Description: SANGER: Inhibition of human 8-MG-BA cell growth in a cell viability assay.

A 172 = assay type: functional, cell-based, Homo sapiens; conditions: Homo sapiens, A 172
Description: SANGER: Inhibition of human A172 cell growth in a cell viability assay.

BB30-HNC = assay type: functional, cell-based, Homo sapiens; conditions: Homo sapiens, BB30-HNC
Description: SANGER: Inhibition of human BB30-HNC cell growth in a cell viability assay.

BFTC-905 = assay type: functional, cell-based, Homo sapiens; conditions: Homo sapiens, BFTC-905
Description: SANGER: Inhibition of human BFTC-905 cell growth in a cell viability assay.

BXPC-3 = assay type: functional, cell-based, Homo sapiens; conditions: Homo sapiens, BXPC-3
Description: SANGER: Inhibition of human BxPC-3 cell growth in a cell viability assay.

CAL-72 = assay type: functional, cell-based, Homo sapiens; conditions: Homo sapiens, CAL-72
Description: SANGER: Inhibition of human CAL-72 cell growth in a cell viability assay.

TE-10 = assay type: functional, cell-based, Homo sapiens; conditions: Homo sapiens, TE-10
Description: SANGER: Inhibition of human TE-10 cell growth in a cell viability assay.

TK-10 = assay type: functional, cell-based, Homo sapiens; conditions: Homo sapiens, TK-10
Description: SANGER: Inhibition of human TK10 cell growth in a cell viability assay.

CHL-1 = assay type: functional, cell-based, Homo sapiens; conditions: Homo sapiens, CHL-1
Description: SANGER: Inhibition of human CHL-1 cell growth in a cell viability assay.

## Cn1cncc1[C@@](N)(c1ccc(Cl)cc1)c1ccc2c(c1)c(-c1cccc(Cl)c1)cc(=O)n2C [TIPIFARNIB]
CP50-MEL-B
  IC50: > 16000 nM
CTB-1
  IC50: 7810 nM
D-263MG
  IC50: > 16000 nM
GAK
  IC50: 3800 nM
GI-1
  IC50: 4420 nM
HCC1187
  IC50: 7610 nM
HCC1395
  IC50: 14900 nM
HCE-4
  IC50: 3040 nM
HL-60
  IC50: 6930 nM
HOS
  IC50: 4100 nM
HT-144
  IC50: 1450 nM
HuTu80
  IC50: 285 nM
HuCCT-1
  IC50: 4310 nM
IA-LM
  IC50: 47.5 nM
IGROV-1
  IC50: 208 nM
JEG-3
  IC50: 8610 nM
K5
  IC50: > 16000 nM
KG-1
  IC50: 3060 nM
KU812 cell line
  IC50: 97.1 nM
MDA-MB-157
  IC50: 14700 nM
MHH-PREB-1
  IC50: 3300 nM
MPP-89
  IC50: > 16000 nM
NCI-H1651
  IC50: > 16000 nM
NCI-H1755
  IC50: > 16000 nM
NCI-H2052
  IC50: > 16000 nM
NCI-H23
  IC50: > 16000 nM
NCI-H2347
  IC50: > 16000 nM
NCI-H596
  IC50: 1820 nM
NCI-H661
  IC50: 7500 nM
NCI-H720
  IC50: > 16000 nM
NCI-H747
  IC50: 2660 nM
OAW-42
  IC50: 956 nM
ONS-76
  IC50: 1470 nM
P12-Ichikawa
  IC50: 10400 nM
RPMI-8866
  IC50: > 16000 nM
SBC-5
  IC50: 2810 nM
SCC-25
  IC50: 5910 nM
SK-MEL-24
  IC50: 1710 nM
SKG-IIIa
  IC50: > 16000 nM
SNU-387
  IC50: 7060 nM
T-24
  IC50: 13900 nM
5637
  IC50: 1030 nM
8-MG-BA
  IC50: 2130 nM
A 172
  IC50: 10100 nM
BB30-HNC
  IC50: 585 nM
BFTC-905
  IC50: 1880 nM
BXPC-3
  IC50: 4330 nM
CAL-72
  IC50: 4950 nM
TE-10
  IC50: 812 nM
TK-10
  IC50: 5680 nM
CHL-1
  IC50: 805 nM

## Cc1cnc(-c2cnc(NCCNc3ccc(C#N)cn3)nc2-c2ccc(Cl)cc2Cl)[nH]1 [LADUVIGLUSIB]
CP50-MEL-B
  IC50: > 2560 nM
CTB-1
  IC50: > 2560 nM
D-263MG
  IC50: > 2560 nM
GAK
  IC50: > 2560 nM
GI-1
  IC50: > 2560 nM
HCC1187
  IC50: > 2560 nM
HCC1395
  IC50: 1780 nM
HCE-4
  IC50: > 2560 nM
HL-60
  IC50: > 2560 nM
HOS
  IC50: > 2560 nM
HT-144
  IC50: > 2560 nM
HuTu80
  IC50: > 2560 nM
HuCCT-1
  IC50: > 2560 nM
IA-LM
  IC50: > 2560 nM
IGROV-1
  IC50: > 2560 nM
JEG-3
  IC50: > 2560 nM
K5
  IC50: > 2560 nM
KG-1
  IC50: > 2560 nM
KU812 cell line
  IC50: > 2560 nM
MDA-MB-157
  IC50: > 2560 nM
MHH-PREB-1
  IC50: > 2560 nM
MPP-89
  IC50: > 2560 nM
NCI-H1651
  IC50: > 2560 nM
NCI-H1755
  IC50: > 2560 nM
NCI-H2052
  IC50: > 2560 nM
NCI-H23
  IC50: > 2560 nM
NCI-H2347
  IC50: > 2560 nM
NCI-H596
  IC50: > 2560 nM
NCI-H661
  IC50: > 2560 nM
NCI-H720
  IC50: > 2560 nM
NCI-H747
  IC50: > 2560 nM
OAW-42
  IC50: > 2560 nM
ONS-76
  IC50: > 2560 nM
P12-Ichikawa
  IC50: > 2560 nM
RPMI-8866
  IC50: > 2560 nM
SBC-5
  IC50: > 2560 nM
SCC-25
  IC50: > 2560 nM
SK-MEL-24
  IC50: > 2560 nM
SKG-IIIa
  IC50: > 2560 nM
SNU-387
  IC50: > 2560 nM
T-24
  IC50: > 2560 nM
5637
  IC50: > 2560 nM
8-MG-BA
  IC50: > 2560 nM
A 172
  IC50: > 2560 nM
BB30-HNC
  IC50: > 2560 nM
BFTC-905
  IC50: > 2560 nM
BXPC-3
  IC50: > 2560 nM
CAL-72
  IC50: > 2560 nM
TE-10
  IC50: > 2560 nM
TK-10
  IC50: > 2560 nM
CHL-1
  IC50: > 2560 nM

## O=C(NOCC1CC1)c1ccc(F)c(F)c1Nc1ccc(I)cc1Cl [CI-1040]
CP50-MEL-B
  IC50: 173 nM
CTB-1
  IC50: 3470 nM
D-263MG
  IC50: 5880 nM
GAK
  IC50: 3330 nM
GI-1
  IC50: > 10000 nM
HCC1187
  IC50: > 10000 nM
HCC1395
  IC50: > 10000 nM
HCE-4
  IC50: > 10000 nM
HL-60
  IC50: 411 nM
HOS
  IC50: 5630 nM
HT-144
  IC50: 647 nM
HuTu80
  IC50: > 10000 nM
HuCCT-1
  IC50: 7010 nM
IA-LM
  IC50: > 10000 nM
IGROV-1
  IC50: 4450 nM
JEG-3
  IC50: > 10000 nM
K5
  IC50: 431 nM
KG-1
  IC50: 307 nM
KU812 cell line
  IC50: 453 nM
MDA-MB-157
  IC50: > 10000 nM
MHH-PREB-1
  IC50: 4120 nM
MPP-89
  IC50: > 10000 nM
NCI-H1651
  IC50: > 10000 nM
NCI-H1755
  IC50: > 10000 nM
NCI-H2052
  IC50: > 10000 nM
NCI-H23
  IC50: > 10000 nM
NCI-H2347
  IC50: > 10000 nM
NCI-H596
  IC50: > 10000 nM
NCI-H661
  IC50: > 10000 nM
NCI-H720
  IC50: > 10000 nM
NCI-H747
  IC50: 4690 nM
OAW-42
  IC50: > 10000 nM
ONS-76
  IC50: 1220 nM
P12-Ichikawa
  IC50: 612 nM
RPMI-8866
  IC50: 6210 nM
SBC-5
  IC50: > 10000 nM
SCC-25
  IC50: 7710 nM
SK-MEL-24
  IC50: 328 nM
SKG-IIIa
  IC50: > 10000 nM
SNU-387
  IC50: > 10000 nM
T-24
  IC50: 2910 nM
5637
  IC50: > 10000 nM
8-MG-BA
  IC50: > 10000 nM
A 172
  IC50: 6490 nM
BB30-HNC
  IC50: > 10000 nM
BFTC-905
  IC50: 2830 nM
BXPC-3
  IC50: > 10000 nM
CAL-72
  IC50: > 10000 nM
TE-10
  IC50: > 10000 nM
TK-10
  IC50: 6330 nM
CHL-1
  IC50: 2810 nM

— ChEMBL document CHEMBL1201861, “Genomics of Drug Sensitity in Cancer screening data, Wellcome Trust Sanger Institute”
